Measurements from patent US8080580B2, “Dioxa-bicyclo[3.2.1]octane-2,3,4-triol derivatives” (Pfizer Inc., priority 2008, dated 2011).
pIC50: −log10 of the molar value. Values joined by “and” are separate entries in the source; they are usually repeats but may differ in a detail not shown here. Equal entries are not always repeated. Where two headings read alike, the source gives them in different places.

Key:
human SGLT2 = target: T1, human SGLT2 (Homo sapiens, UniProt P31639); test: SGLT2 functional assay: inhibition of AMG uptake in CHO-FlpIn cells stably expressing human SGLT2; format: cell-based; conditions: individual runs (Run No.), read-out: hSGLT2 IC50
T1 construct: expressed in transfected cells; host or cells: CHO-FlpIn (Invitrogen)
T1 sequence (P31639 1-672): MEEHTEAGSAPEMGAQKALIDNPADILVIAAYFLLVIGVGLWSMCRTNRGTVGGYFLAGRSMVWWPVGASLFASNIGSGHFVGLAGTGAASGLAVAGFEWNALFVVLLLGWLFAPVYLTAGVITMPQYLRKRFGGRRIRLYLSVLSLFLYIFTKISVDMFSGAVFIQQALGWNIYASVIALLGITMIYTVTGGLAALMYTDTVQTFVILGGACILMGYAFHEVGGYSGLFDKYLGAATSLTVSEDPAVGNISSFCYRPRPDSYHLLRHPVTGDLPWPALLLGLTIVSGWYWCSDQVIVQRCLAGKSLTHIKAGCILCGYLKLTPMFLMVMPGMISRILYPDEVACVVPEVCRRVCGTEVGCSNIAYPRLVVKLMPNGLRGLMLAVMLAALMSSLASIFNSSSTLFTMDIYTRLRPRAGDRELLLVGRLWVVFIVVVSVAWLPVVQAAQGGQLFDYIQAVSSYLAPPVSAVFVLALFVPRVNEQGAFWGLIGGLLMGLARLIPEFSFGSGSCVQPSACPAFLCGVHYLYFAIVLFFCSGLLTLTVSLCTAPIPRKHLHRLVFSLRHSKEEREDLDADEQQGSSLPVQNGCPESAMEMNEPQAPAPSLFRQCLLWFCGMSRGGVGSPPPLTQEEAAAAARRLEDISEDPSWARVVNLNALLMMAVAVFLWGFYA
Text: The SGLT2 functional assay was designed to detect the inhibition of methyl-alpha-D glucopyranoside (AMG—a non-metabolizable form of glucose) uptake via the SGLT2 transporter. The SGLT2 transporter recovers glucose from the proximal tubules of the kidney; its inhibition results in sugar wasted in the urine. The positive control compound, Phlorizin, is a known inhibitor of glucose uptake for SGLT2 and was used for comparing the high percent effect of SGLT2 inhibition of the test compounds.
CHO-FlpIn (Invitrogen, Carlsbad, Calif.) cells stably expressing human SGLT2 (pcDNA5/FRT) were plated in Iso-TC 96 well plates (Perkin Elmer, Waltham, Mass.) at a density of 100,000 cells/well in 100 microL of growth media (1:1 F-12/DMEM media (Gibco, Carlsbad, Calif.), 10% FBS (Sigma, St. Louis Mo.), 1× Pen/Strep (Gibco, Carlsbad, Calif.), 600 microg/mL Hygromycin (Invitrogen, Carlsbad, Calif.)). Prior to treating with test compound, confluent cells were serum starved for 2 hours at 37° C. in 1:1 F-12/DMEM media, replacing with fresh F-12/DMEM media after 1 hour. […] Cell plates were then incubated for 3 hours at 37° C. for AMG uptake.

[1] = PK satellite group of the in-vivo UGE assay (plasma by LC-MS/MS); conditions: male, Sprague Dawley, rat plasma, oral gavage; for Tmax: read-out: Mean PK Parameters (n = 2) tmax
Experimental: Male Sprague Dawley rats (˜300 g) were singly housed in metabolic cages for urine collection. […] Rats (n=2 to 5/group) received vehicle or compound by oral gavage. Dosing solutions were 0.03 mg/mL, 0.3 mg/mL, 0.9 mg/mL, 3 mg/mL, 9 mg/mL and 18 mg/mL for the 0.1 mg/kg, 1 mg/kg, 3 mg/kg, 10 mg/kg, 30 mg/kg and 60 mg/kg doses respectively. Dosing volume was 1 mL/300 g of body weight for all doses. […] The vehicle was 20% v/v PEG400 and 24% v/v hydroxypropyl beta cyclodextrin; HPBCD. Following oral administration, urine was collected for 24 hours. Glucose concentration was measured in urine by UV absorbance spectrophotometry at 340 nm using a Roche Hitachi 917 spectrophotometer (Diamond Diagnostics, Holliston, Mass.). The total amount of glucose excreted in the urine was calculated as the product of urine concentration and urine volume using the formula below: urinary glucose excreted (mg)/200 g body weight=urinary glucose concentration (mg/dL)×urine volume (dL)×200/rat body weight (g). […] Blood (0.1 mL) was collected from the PK satellite group animals at 1, 2, 4, 7, 24 hours postdose to obtain plasma and analyzed by LC-MS/MS.

Compound	pIC50 (human SGLT2)	AUC(0-t) ([1]; 0.1 mg/kg) [µg·h/mL]	Cmax ([1]; 0.1 mg/kg) [µg/mL]	AUC(0-t) ([1]; 1 mg/kg) [µg·h/mL]	Cmax ([1]; 1 mg/kg) [µg/mL]	Tmax ([1]; 1 mg/kg) [h]	AUC(0-t) ([1]; 3 mg/kg) [µg·h/mL]	Cmax ([1]; 3 mg/kg) [µg/mL]	Tmax ([1]; 3 mg/kg) [h]	AUC(0-t) ([1]; 10 mg/kg) [µg·h/mL]	Cmax ([1]; 10 mg/kg) [µg/mL]	Tmax ([1]; 10 mg/kg) [h]	AUC(0-t) ([1]; 30 mg/kg) [µg·h/mL]	Cmax ([1]; 30 mg/kg) [µg/mL]	Tmax ([1]; 30 mg/kg) [h]	AUC(0-t) ([1]; 60 mg/kg) [µg·h/mL]	Cmax ([1]; 60 mg/kg) [µg/mL]	Tmax ([1]; 60 mg/kg) [h]
CCOc1ccc(Cc2cc([C@]34OC[C@](CO)(O3)[C@@H](O)[C@H](O)[C@H]4O)ccc2Cl)cc1 [Example 4A, (1S,2S,3S,4R,5S)-5-[4-chloro-3-(4-ethoxy-benzyl)-phenyl]-1-hydroxymethyl-6,8-dioxa-bicyclo[3.2.1]octane-2,3,4-triol]	8.90 and 9.09 and 9.24 and 9.04 and 8.73 and 9.15 and 9.13 and 9.07 and 9.11	0.188	0.0434	2	0.372	1	7.08	1.32	1	26.4	3.1	2.5	10.7	10.5	1	233	25.3	2
COc1ccc(Cc2cc([C@]34OC[C@](CO)(O3)[C@@H](O)[C@H](O)[C@H]4O)ccc2C)cc1 [Example 1A, (1S,2S,3S,4R,5S)-1-hydroxymethyl-5-[3-(4-methoxy-benzyl)-4-methyl-phenyl]-6,8-dioxa-bicyclo[3.2.1]octane-2,3,4-triol]	8.79 and 8.81 and 8.94 and 9.11 and 9.15 and 9.18	–	–	–	–	–	–	–	–	6.63	1.26	1	–	–	–	–	–	–
